Source: patent EP4663242A1, “TARGETING THE ENERGY COUPLING FACTOR (ECF) TRANSPORTERS AS NOVEL ANTIMICROBIAL TARGET” (Helmholtz-Zentrum für Infektionsforschung GmbH, priority 2024, dated 2025)
Values after ≈ are worked out from the molar mass of the structure shown. Values joined by “and” are separate entries in the source; they are usually repeats but may differ in a detail not shown here. Equal entries are not always repeated. Where two headings read alike, the source gives them in different places.

What was measured:
ECF-FoIT2 = experiment: Uptake assay into proteoliposome (radiolabelled folate uptake); type: biochemical, L. delbrueckii; details: folate uptake into proteoliposomes, n = 2, mean ± SD
Description: In summary, both 1 and 22 are capable of inhibiting the ECF-FoIT2 in a proteoliposome-based uptake assay which further complements the results obtained from the whole-cell uptake assay. Table 4. Relative inhibition of ECF-FoIT2 in proteoliposome uptake assay
4.3.2. Uptake assay into proteoliposome
This assay was performed based on the protocol reported by Swier et al. with minor modifications.^18

[1] = tested on: Enterococcus faecalis DSM-20477; experiment: MIC screening against Gram-positive pathogens; type: cell-based
Description: (§1) 4.3.3. Screening against clinically relevant Gram-positive pathogens.
(§2) All microorganisms were obtained from the German Collection of Microorganisms and Cell Cultures (DSMZ) and were handled according to standard procedures. Bacteria were inoculated into tryptic soy broth (TSB) to obtain a final inoculum of […] colony-forming units (CFU)/mL. The tested compounds were prepared as DMSO stocks (20 mM). Serial dilutions of derivatives in the growth medium (0.06 to 128 µM) were prepared in sterile 96-well plates, and the bacterial suspensions were added. Growth inhibition was assessed after static incubation at 37 °C for 24 h. S. pneumoniae was grown at 5% CO2. MIC values are defined as the lowest compound concentration where no visible growth is observed.

[2] = tested on: Streptococcus pneumoniae DSM-20566; experiment: MIC screening against Gram-positive pathogens; type: cell-based; details: 37 °C, 24 h
Description: as §1, §2

E. faecium DSM-20478 = experiment: MIC screening against Gram-positive pathogens; type: cell-based; details: Enterococcus faecium
Description: as §1, §2

E. faecium DSM-17050 = experiment: MIC screening against Gram-positive pathogens; type: cell-based; details: Enterococcus faecium
Description: as §1, §2

S. pneumoniae DSM-11865 = experiment: MIC screening against Gram-positive pathogens; type: cell-based; details: Streptococcus pneumoniae
Description: as §1, §2

Compound | Relative inhibition (%) at 150 µM (ECF-FoIT2) | MIC ([1]; DSM20477, Enterococcus faecalis DSM-20477, TSB, 37 °C, 24 h, read-out: MIC) [µM] | MIC ([2]; DSM20566, TSB, 5% CO2, read-out: MIC) [µM] | MIC ([2]; TSB, 5% CO2) [µM] | MIC (E. faecium DSM-20478; DSM20478, E. faecium DSM-20478, TSB, 37 °C, 24 h, read-out: MIC) [µM] | MIC (E. faecium DSM-17050; DSM17050, E. faecium DSM-17050, vancomycin-resistant strain, TSB, 37 °C, 24 h, read-out: MIC) [µM] | MIC (S. pneumoniae DSM-11865; DSM11865, S. pneumoniae DSM-11865, penicillin-resistant strain, TSB, 37 °C, 24 h, 5% CO2, read-out: MIC) [µM] | MIC ([1]; Enterococcus faecalis, DSM20477, 24 h) [µM] | MIC (E. faecium DSM-20478; DSM20478, 24 h) [µM] | MIC (E. faecium DSM-17050; DSM17050, 24 h) [µM] | MIC (S. pneumoniae DSM-11865; DSM11865, 24 h) [µM]
O=C(O)c1cccc(-c2nc(-c3ccc(Cl)c(Cl)c3)c(-c3cccc(C(F)(F)F)c3)o2)c1 [Compound 22, 3-(4-(3,4-Dichlorophenyl)-5-(3-(trifluoromethyl)phenyl)oxazol-2-yl)benzoic acid] | 95% and 95 ± 1% | 4 (≈ 1.91 µg/mL) | 0.5 to 1 (≈ 0.239 to 0.478 µg/mL) | 0.5 to 1 | 4 (≈ 1.91 µg/mL) | 2 (≈ 0.957 µg/mL) | 0.5 to 1 (≈ 0.239 to 0.478 µg/mL) | – | – | – | –
O=C(O)CCc1nc(-c2ccc(Cl)cc2)c(-c2ccccc2)o1 [Compound 1, 3-(4-(4-Chlorophenyl)-5-phenyloxazol-2-yl)propanoic acid] | 44% and 44 ± 2% | – | – | – | – | – | – | > 128 | > 128 | > 128 | > 128
